The supplement of paper PMC10307832

How the values were obtained:
Experiment in all cases: relative viability (nuclei count vs DMSO), 5 days (fraction); higher = more cells survive
201T = test system: 201T
How it was run: (§1)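 Medians of duplicate plates are given as relative viability. That measure is the nuclei count in treated wells divided by the count in vehicle wells. Counts were taken on 4× images of lung cancer cell lines in 1536-well plates, 5 days after pin-tool dosing the day after seeding with one drug alone or a fixed anchor-drug dose plus five library-drug doses (not always all listed) in √10 steps.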

A-427 = test system: A-427
How it was run: as §1

BEN = test system: BEN
How it was run: as §1

COR-L23 = test system: COR-L23
How it was run: as §1

EKVX = test system: EKVX
How it was run: as §1

HARA = test system: HARA
How it was run: as §1

HCC-15 = test system: HCC-15
How it was run: as §1

HCC-827 = test system: HCC-827
How it was run: as §1

NCI-H1437 = test system: NCI-H1437
How it was run: as §1

NCI-H1650 = test system: NCI-H1650
How it was run: as §1

NCI-H1666 = test system: NCI-H1666
How it was run: as §1

NCI-H1975 = test system: NCI-H1975
How it was run: as §1

NCI-H2342 = test system: NCI-H2342
How it was run: as §1

NCI-H23 = test system: NCI-H23
How it was run: as §1

NCI-H358 = test system: NCI-H358
How it was run: as §1

NCI-H441 = test system: NCI-H441
How it was run: as §1

NCI-H596 = test system: NCI-H596
How it was run: as §1

NCI-H650 = test system: NCI-H650
How it was run: as §1

NCI-H838 = test system: NCI-H838
How it was run: as §1

SK-MES-1 = test system: SK-MES-1
How it was run: as §1

SW 900 = test system: SW 900
How it was run: as §1

COc1nc(C)cnc1NS(=O)(=O)c1cccnc1-c1ccc(-c2nnco2)cc1 [Zibotentan] + COc1cc2c(Oc3ccc(NC(=O)C4(C(=O)Nc5ccc(F)cc5)CC4)cc3F)ccnc2cc1OCCCN1CCOCC1 [Foretinib] (partner 0.25 µM) was tested, and the relative viability (201T; first compound 0.08 µM) was 1.16, the relative viability (201T; first compound 0.253 µM) was 0.956 and the relative viability (201T; first compound 0.8 µM) was 1.04. It also gave a relative viability (201T; first compound 2.53 µM) of 1.15, a relative viability (A-427; first compound 0.08 µM) of 1.14 and a relative viability (A-427; first compound 0.253 µM) of 1.1. It also gave a relative viability (A-427; first compound 0.8 µM) of 1.1, a relative viability (A-427; first compound 2.53 µM) of 1.19 and a relative viability (BEN; first compound 0.08 µM) of 0.739. It also gave a relative viability (BEN; first compound 0.253 µM) of 0.475, a relative viability (BEN; first compound 0.8 µM) of 0.819 and a relative viability (BEN; first compound 2.53 µM) of 0.639. It also gave a relative viability (COR-L23; first compound 0.08 µM) of 1.21, a relative viability (COR-L23; first compound 0.253 µM) of 0.926 and a relative viability (COR-L23; first compound 0.8 µM) of 0.989. For the same molecule, the relative viability (COR-L23; first compound 2.53 µM) was 0.894, the relative viability (EKVX; first compound 0.08 µM) was 0.892 and the relative viability (EKVX; first compound 0.253 µM) was 0.762. It also gave a relative viability (EKVX; first compound 0.8 µM) of 1.11, a relative viability (EKVX; first compound 2.53 µM) of 0.875 and a relative viability (HARA; first compound 0.08 µM) of 1. The relative viability (HARA; first compound 0.253 µM) was 0.743, the relative viability (HARA; first compound 0.8 µM) was 0.883 and the relative viability (HARA; first compound 2.53 µM) was 0.874. For the same molecule, the relative viability (HCC-15; first compound 0.08 µM) was 1.05, the relative viability (HCC-15; first compound 0.8 µM) was 1.03 and the relative viability (HCC-15; first compound 2.53 µM) was 1.05. For the same molecule, the relative viability (HCC-827; first compound 0.08 µM) was 1.06, the relative viability (HCC-827; first compound 0.253 µM) was 1.01 and the relative viability (HCC-827; first compound 0.8 µM) was 1.11. For the same molecule, the relative viability (HCC-827; first compound 2.53 µM) was 1.09, the relative viability (NCI-H1437; first compound 0.08 µM) was 1.27 and the relative viability (NCI-H1437; first compound 0.253 µM) was 1.18. The relative viability (NCI-H1437; first compound 0.8 µM) was 1.26, the relative viability (NCI-H1437; first compound 2.53 µM) was 1.26 and the relative viability (NCI-H1650; first compound 0.08 µM) was 1.04. The relative viability (NCI-H1650; first compound 0.8 µM) was 1.29, the relative viability (NCI-H1650; first compound 2.53 µM) was 1.28 and the relative viability (NCI-H1666; first compound 0.08 µM) was 0.902. For the same molecule, the relative viability (NCI-H1666; first compound 0.253 µM) was 0.918, the relative viability (NCI-H1666; first compound 0.8 µM) was 0.938 and the relative viability (NCI-H1666; first compound 2.53 µM) was 0.972. The relative viability (NCI-H1975; first compound 0.08 µM) was 0.98, the relative viability (NCI-H1975; first compound 0.253 µM) was 0.849 and the relative viability (NCI-H1975; first compound 0.8 µM) was 0.824. The relative viability (NCI-H1975; first compound 2.53 µM) was 0.856, the relative viability (NCI-H2342; first compound 0.08 µM) was 1.08 and the relative viability (NCI-H2342; first compound 0.253 µM) was 0.954. The relative viability (NCI-H2342; first compound 0.8 µM) was 1.03, the relative viability (NCI-H2342; first compound 2.53 µM) was 1.13 and the relative viability (NCI-H23; first compound 0.08 µM) was 1.08. The relative viability (NCI-H23; first compound 0.253 µM) was 0.766, the relative viability (NCI-H23; first compound 0.8 µM) was 0.986 and the relative viability (NCI-H23; first compound 2.53 µM) was 1.17. The relative viability (NCI-H358; first compound 0.08 µM) was 0.809, the relative viability (NCI-H358; first compound 0.253 µM) was 0.485 and the relative viability (NCI-H358; first compound 0.8 µM) was 0.595. The relative viability (NCI-H358; first compound 2.53 µM) was 0.57, the relative viability (NCI-H441; first compound 0.08 µM) was 1.11 and the relative viability (NCI-H441; first compound 0.253 µM) was 0.745. It also gave a relative viability (NCI-H441; first compound 0.8 µM) of 1.03, a relative viability (NCI-H441; first compound 2.53 µM) of 1.04 and a relative viability (NCI-H596; first compound 0.08 µM) of 0.899. For the same molecule, the relative viability (NCI-H596; first compound 0.253 µM) was 0.794, the relative viability (NCI-H596; first compound 0.8 µM) was 0.768 and the relative viability (NCI-H596; first compound 2.53 µM) was 0.914. The relative viability (NCI-H650; first compound 0.08 µM) was 1.1, the relative viability (NCI-H650; first compound 0.253 µM) was 0.877 and the relative viability (NCI-H650; first compound 0.8 µM) was 1.07. It also gave a relative viability (NCI-H650; first compound 2.53 µM) of 0.994, a relative viability (NCI-H838; first compound 0.08 µM) of 0.992 and a relative viability (NCI-H838; first compound 0.253 µM) of 0.934. For the same molecule, the relative viability (NCI-H838; first compound 0.8 µM) was 1.06, the relative viability (NCI-H838; first compound 2.53 µM) was 1.08 and the relative viability (SK-MES-1; first compound 0.08 µM) was 0.974. For the same molecule, the relative viability (SK-MES-1; first compound 0.253 µM) was 0.886, the relative viability (SK-MES-1; first compound 0.8 µM) was 0.974 and the relative viability (SK-MES-1; first compound 2.53 µM) was 1.02. For the same molecule, the relative viability (SW 900; first compound 0.08 µM) was 0.997, the relative viability (SW 900; first compound 0.253 µM) was 0.811 and the relative viability (SW 900; first compound 0.8 µM) was 0.887. The relative viability (SW 900; first compound 2.53 µM) was 0.857.
